Measured values as given in patent US9428504B2, “7-hydroxy-spiropipiperidine indolinyl antagonists of P2Y1 receptor” (BRISTOL-MYERS SQUIBB COMPANY, priority 2012, dated 2016).

Assays:
[1] = target: cloned human P2Y1 receptors (Homo sapiens (Human), UniProt P47900); experiment: Binding Assay B: Scintillation Proximity Assay (SPA) for P2Y1 binding; details: SPA, [33P] 2MeS-ADP displacement; read-out: P2Y1 Ki (nM) using binding assay B
Description: A SPA membrane binding assay was used to identify inhibitors of [^33P] […] Binding reactions were performed in 384-well OptiPlates (PerkinElmer Life Sciences, Cat #6007299) in a volume of 50 μL containing ˜15 fmol of P2Y1 receptor (1.7 μg of total protein), 0.3 nM [^33P] […] Reactions were allowed to proceed to completion at room temperature for 1 hour followed by centrifugation of the plate for 5 min. About 40 μL of the aqueous solution was aspirated. Plates were sealed and the [^33P]

[2] = system: human platelet rich plasma (PRP); experiment: ADP induced platelet aggregation assay; details: Homo sapiens, Platelet, read-out: PA IC50 (μM) @ 10 μM ADP, platelet aggregation induced by 10 μM ADP, human PRP

Chain of cloned human P2Y1 receptors (P47900 whole entry): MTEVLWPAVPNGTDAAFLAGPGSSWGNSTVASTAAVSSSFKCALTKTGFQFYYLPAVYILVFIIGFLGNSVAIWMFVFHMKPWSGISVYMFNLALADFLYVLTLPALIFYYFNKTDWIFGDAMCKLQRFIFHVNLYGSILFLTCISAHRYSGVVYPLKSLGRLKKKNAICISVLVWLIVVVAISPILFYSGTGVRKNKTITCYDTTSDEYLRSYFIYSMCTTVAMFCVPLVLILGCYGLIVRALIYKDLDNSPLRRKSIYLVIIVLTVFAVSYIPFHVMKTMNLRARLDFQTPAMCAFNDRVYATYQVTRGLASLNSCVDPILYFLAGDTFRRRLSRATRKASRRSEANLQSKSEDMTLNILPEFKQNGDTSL

Row | SMILES | Ki [1] [nM] | IC50 [2] [µM]
1 | CC(C)(C)CN1CCC2(CC1)CN(c1ccccc1NC(=O)Nc1ccc(C(C)(C)C)cc1)c1c2ccc(F)c1O [Example 2, 1-(4-tert-Butylphenyl)-3-(2-(6-fluoro-7-hydroxy-1′-neopentylspiro[indoline-3,4′-piperidine]-1-yl)phenyl)urea] | 9 | 0.6
2 | CC(C)(C)CN1CCC2(CC1)CN(c1ccccc1NC(=O)Nc1nc3ccc(F)cc3s1)c1c(O)ccc(C(F)(F)F)c12 [Example 3, 1-(6-Fluorobenzo[d]thiazol-2-yl)-3-(2-(7-hydroxy-1′-neopentyl-4-(trifluoromethyl)spiro[indoline-3,4′-piperidine]-1-yl)phenyl)urea] | 8.9 | 0.1
3 | CC(C)CN1CCC2(CC1)CN(c1ccccc1NC(=O)Nc1nc3ccc(F)cc3s1)c1c(O)ccc(Cl)c12 [Example 4, 1-(2-(4-Chloro-7-hydroxy-1′-isobutylspiro[indoline-3,4′-piperidine]-1-yl)phenyl)-3-(6-fluorobenzo[d]thiazol-2-yl)urea] | 9.9 | 0.4
4 | CC(C)(C)CN1CCC2(CC1)CN(c1ccccc1NC(=O)Nc1ccc(C(C)(C)C)cc1)c1c(O)cccc12 [Example 5, 1-(4-tert-Butylphenyl)-3-(2-(7-hydroxy-1′-neopentylspiro[indoline-3,4′-piperidine]-1-yl)phenyl)urea] | 8.3 | 0.4
5 | CC(C)(C)CN1CCC2(CC1)CN(c1ccccc1NC(=O)Nc1ccc(OC(F)(F)F)cc1)c1c(O)ccc(F)c12 [Example 6, 1-(2-(4-Fluoro-7-hydroxy-1′-neopentylspiro[indoline-3,4′-piperidine]-1-yl)phenyl)-3-(4-(trifluoromethoxy)phenyl)urea] | 4.4 | 0.9
6 | CC(C)(C)CN1CCC2(CC1)CN(c1ccccc1NC(=O)Nc1ccc(C(C)(C)C)cc1)c1c(O)ccc(F)c12 [Example 7, 1-(4-tert-Butylphenyl)-3-(2-(4-fluoro-7-hydroxy-1′-neopentylspiro[indoline-3,4′-piperidine]-1-yl)phenyl)urea] | 4 | 0.6
7 | CC(C)(C)CN1CCC2(CC1)CN(c1ccccc1NC(=O)Nc1ccc(OC(F)(F)F)cc1)c1c(O)ccc(C#N)c12 [Example 8, 1-(2-(4-Cyano-7-hydroxy-1′-neopentylspiro[indoline-3,4′-piperidine]-1-yl)phenyl)-3-(4-(trifluoromethoxy)phenyl)urea] | 5.7 | 1.1
8 | CC(C)(C)CN1CCC2(CC1)CN(c1ccccc1NC(=O)Nc1ccc(C(C)(C)C)cc1)c1c(O)cc(F)c(F)c12 [Example 9, 1-(4-tert-Butylphenyl)-3-(2-(4,5-difluoro-7-hydroxy-1′-neopentylspiro [indoline-3,4′-piperidine]-1-yl)phenyl)urea] | 10.5 | 0.9
9 | CC(C)(C)CN1CCC2(CC1)CN(c1ccccc1NC(=O)Nc1ccc(OC(F)(F)F)cc1)c1c(O)ccc(C(F)(F)F)c12 [Example 10, 1-(2-(7-Hydroxy-1′-neopentyl-4-(trifluoromethyl)spiro[indoline-3,4′-piperidine]-1-yl)phenyl)-3-(4-(trifluoromethoxy)phenyl)urea] | 4.5 | 0.1
10 | CC(C)(C)CN1CCC2(CC1)CN(c1ccccc1NC(=O)Nc1ccc(C(C)(C)C)cc1)c1c(O)ccc(C(F)(F)F)c12 [Example 11, 1-(4-tert-Butylphenyl)-3-(2-(7-hydroxy-1′-neopentyl-4-(trifluoromethyl)spiro[indoline-3,4′-piperidine]-1-yl)phenyl)urea] | 7.9 | 0.1
11 | CC(C)(C)CN1CCC2(CC1)CN(c1ncccc1NC(=O)Nc1ccc(OC(F)(F)F)cc1)c1c(O)ccc(C(F)(F)F)c12 [Example 12, 1-(2-(7-Hydroxy-1′-neopentyl-4-(trifluoromethyl)spiro[indoline-3,4′-piperidine]-1-yl)pyridin-3-yl)-3-(4-(trifluoromethoxy)phenyl)urea] | 5.6 | 1.4
12 | CC(C)(C)CN1CCC2(CC1)CN(c1ccccc1NC(=O)Nc1ccc(OC(F)(F)F)cc1)c1c2ccc(F)c1O [Example 14, 1-(2-(6-Fluoro-7-hydroxy-1′-neopentylspiro[indoline-3,4′-piperidine]-1-yl)phenyl)-3-(4-(trifluoromethoxy)phenyl)urea] | 12.8 | 2.1
13 | CC(C)(C)CN1CCC2(CC1)CN(c1ccccc1NC(=O)Nc1ccc(F)c(F)c1)c1c(O)ccc(C(F)(F)F)c12 [Example 15, 1-(3,4-Difluorophenyl)-3-(2-(7-hydroxy-1′-neopentyl-4-(trifluoromethyl)spiro[indoline-3,4′-piperidine]-1-yl)phenyl)urea] | 5.1 | 0.5
14 | CCSc1nsc(NC(=O)Nc2ccccc2N2CC3(CCN(CC(C)(C)C)CC3)c3c(C(F)(F)F)ccc(O)c32)n1 [Example 16, 1-(3-(Ethylthio)-1,2,4-thiadiazol-5-yl)-3-(2-(7-hydroxy-1′-neopentyl-4-(trifluoromethyl)spiro[indoline-3,4′-piperidine]-1-yl)phenyl)urea] | 8.1 | 0.3
15 | CC(C)(C)CN1CCC2(CC1)CN(c1ccccc1NC(=O)Nc1ccc(OC(F)F)cc1)c1c(O)ccc(C(F)(F)F)c12 [Example 17, 1-(4-(Difluoromethoxy)phenyl)-3-(2-(7-hydroxy-1′-neopentyl-4-(trifluoromethyl)spiro[indoline-3,4′-piperidine]-1-yl)phenyl)urea] | 9 | 0.4
16 | CC(C)(C)CN1CCC2(CC1)CN(c1ccccc1NC(=O)Nc1csc(Cl)n1)c1c(O)ccc(C(F)(F)F)c12 [Example 18, 1-(2-Chlorothiazol-4-yl)-3-(2-(7-hydroxy-1′-neopentyl-4-(trifluoromethyl)spiro[indoline-3,4′-piperidine]-1-yl)phenyl)urea] | 6.2 | 0.1
17 | CC(C)c1nsc(NC(=O)Nc2ccccc2N2CC3(CCN(CC(C)(C)C)CC3)c3c(C(F)(F)F)ccc(O)c32)n1 [Example 19, 1-(2-(7-Hydroxy-1′-neopentyl-4-(trifluoromethyl)spiro[indoline-3,4′-piperidine]-1-yl)phenyl)-3-(3-isopropyl-1,2,4-thiadiazol-5-yl)urea] | 7.5 | 0.2
18 | CC(C)(C)CN1CCC2(CC1)CN(c1ccccc1NC(=O)Nc1ccc(F)cc1F)c1c(O)ccc(C(F)(F)F)c12 [Example 20, 1-(2,4-Difluorophenyl)-3-(2-(7-hydroxy-1′-neopentyl-4-(trifluoromethyl)spiro[indoline-3,4′-piperidine]-1-yl)phenyl)urea] | 3.2 | 0.2
19 | CC(C)(C)CN1CCC2(CC1)CN(c1ccccc1NC(=O)Nc1nc3ccc(Cl)cc3s1)c1c(O)ccc(C(F)(F)F)c12 [Example 21, 1-(6-Chlorobenzo[d]thiazol-2-yl)-3-(2-(7-hydroxy-1′-neopentyl-4-(trifluoromethyl)spiro[indoline-3,4′-piperidine]-1-yl)phenyl)urea] | 30.9 | 0.4
20 | CC(C)(C)CN1CCC2(CC1)CN(c1ccccc1NC(=O)Nc1ccc(C(F)(F)F)cc1)c1c(O)ccc(C(F)(F)F)c12 [Example 22, 1-(2-(7-Hydorxy-1′-neopentyl-4-(trifluoromethyl)spiro[indoline-3,4′-piperidine]-1-yl)phenyl)-3-(4-(trifluoromethyl)phenyl)urea] | 4.4 | 0.2
21 | CC(C)(C)CN1CCC2(CC1)CN(c1ccccc1NC(=O)Nc1ccc(C(F)(F)F)nc1)c1c(O)ccc(C(F)(F)F)c12 [Example 23, 1-(2-(7-Hydroxy-1′-neopentyl-4-(trifluoromethyl)spiro[indoline-3,4′-piperidine]-1-yl)phenyl)-3-(6-(trifluoromethyl)pyridin-3-yl)urea] | 8 | 1.1
22 | CC(C)(C)CN1CCC(NC(=O)Nc2ccccc2N2CC3(CCN(CC(C)(C)C)CC3)c3c(C(F)(F)F)ccc(O)c32)CC1 [Example 24, 1-(2-(7-Hydroxy-1′-neopentyl-4-(trifluoromethyl)spiro[indoline-3,4′-piperidine]-1-yl)phenyl)-3-(1-neopentylpiperidin-4-yl)urea] | 14.8 | 0.4
23 | Cc1nc(NC(=O)Nc2ccccc2N2CC3(CCN(CC(C)(C)C)CC3)c3c(C(F)(F)F)ccc(O)c32)cs1 [Example 25, 1-(2-(7-Hydroxy-1′-neopentyl-4-(trifluoromethyl)spiro[indoline-3,4′-piperidine]-1-yl)phenyl)-3-(2-methylthiazol-4-yl)urea] | 4.9 | 0.1
24 | CC(C)(C)CN1CCC2(CC1)CN(c1ccccc1NC(=O)Nc1csc(Cl)c1)c1c(O)ccc(C(F)(F)F)c12 [Example 26, 1-(5-Chlorothiophen-3-yl)-3-(2-(7-hydroxy-1′-neopentyl-4-(trifluoromethyl)spiro[indoline-3,4′-piperidine]-1-yl)phenyl)urea] | 7.3 | 0.2
25 | COc1ccc2nc(NC(=O)Nc3ccccc3N3CC4(CCN(CC(C)(C)C)CC4)c4c(C#N)ccc(O)c43)sc2n1 [Example 177, 1-(2-(4-Cyano-7-hydroxy-1′-neopentylspiro[indoline-3,4′-piperidine]-1-yl)phenyl)-3-(5-methoxythiazolo[5,4-b]pyridin-2-yl)urea] |  | 0.7
26 | CC(C)(C)CN1CCC2(CC1)CN(c1ccccc1NC(=O)Nc1nc3ccc(F)nc3s1)c1c(O)ccc(C#N)c12 [Example 180, 1-(2-(4-Cyano-7-hydroxy-1′-neopentylspiro[indoline-3,4′-piperidine]-1-yl)phenyl)-3-(5-fluorothiazolo[5,4-b]pyridin-2-yl)urea] |  | 0.9
